What follows are molecules tested on adipose cells of rats (assay: Evaluation of the sugar transportation activity (2-[14C(U)]-deoxy-D-glucose incorporation)). Conditions: concentration with reinforcing effect of 50% of that of insulin (100 nM) = 100%; rat adipose cells, 30 min pre-culture at 37° C., 5 min uptake.
Type: cell-based, Wistar rats
Experimental: 1. Preparation of Adipose Cells of Rats:
After the decapitation and venesection of 6 male Wistar rats (body weight: 150 to 200 g), an incision was made in the abdomen of each rat to extract 6 g in total of epididymal adipose tissues. The tissues were finely cut into 2 mm×2 mm pieces in 6 ml of KRH (Krebs-Ringer Hepes, composition: 130 mM of sodium chloride, 4.7 mM of potassium chloride, 1.2 mM of potassium dihydrogenphosphate, 1.2 mM of magnesium sulfate, 1 mM of calcium chloride and 25 mM of Hepes, pH=7.6) containing 5% of BSA (bovine serum albumin). 24 mg of collagenase (type I) was added thereto and the digestion treatment was conducted for about 40 minutes to obtain about 6 ml of isolated adipose cells. The collagenase was removed by the buffer exchange. 2% BSA/KRH solution was added to the residue for the re-suspension to obtain 45 ml of an adipose cell suspension.
2. Evaluation of the Sugar Transportation Activity:
The sugar transportation activity of the compound (I) of the present invention was evaluated with reference to a method described in a literature [Annual Review of Biochemistry, Vol. 55, p. 1059 (1986)]. In the test, 200 μL of the adipose cell suspension was poured in each polystyrene test tube, 100 μL of the solution of the test substance (by dilution of 10 mg/mL dimethyl sulfoxide solution with KRH) was added thereto, and the obtained mixture was shaken and then cultured at 37° C. for 30 minutes. The sugar transportation activity was evaluated by measuring the quantity of 2-[^14C(U)]-deoxy-D-glucose incorporated per a unit time. Namely, 2-[^14C(U)]-deoxy-D-glucose was added to the adipose cell suspension after the pre-culture (the final concentration: 0.5 μCi/sample). 5 minutes after, cytochalasin B (final concentration: 10 μM) was added to the mixture to terminate the sugar transportation. After forming a dinonyl phthalate layer, the obtained mixture was centrifuged to separate the adipose cells from the buffer. The quantity of 2-[^14C(U)]-deoxy-D-glucose contained in the adipose cell layer was determined with a liquid scintillation counter to determine the quantity of the incorporated sugar. In this evaluation system, when insulin (100 nM) having the effect of reinforcing the sugar transportation was used, the effect was about 7 times as high as that obtained in the insulin-free control group.
The results of the evaluation of the sugar transportation activity obtained by using 100 μg/mL of the compound (I) of the present invention are shown in Table 3. The sugar transportation activity in Table 3 was evaluated on the basis of the reinforcing effect of insulin (100 nM). The sugar transportation activity A in Table 3 was determined in terms of the concentration (EC50: μg/mL) of a test compound, having a reinforcing effect corresponding to 50% on the basis of the reinforcing effect of insulin (100 nM) having a reinforcing effect of 100%.
The symbols in Table 3 are as follows: • No: Compound No. in Tables 1 and 2, and • A: sugar transportation activity.

Row | Molecule | A: sugar transportation activity (EC50) [µg/mL]
1 | COC(=O)N1[C@@H]2CCCC[C@H]2NC2=C(C(=O)NC2)[C@H]1c1ccccc1 [Compound 133] | 2
2 | O=C1NCC2=C1[C@@H](c1ccccc1Cl)N(C(=O)CC(F)(F)F)[C@@H]1CCCC[C@H]1N2 [Compound 118] | 0.5
3 | CC(=O)N1[C@@H]2CCCC[C@H]2NC2=C(C(=O)NC2)[C@H]1c1ccccc1N [Compound 136] | 12
4 | COc1cccc([C@@H]2C3=C(CNC3=O)N[C@@H]3CCCC[C@H]3N2C(C)=O)c1OC [Compound 77] | 12
5 | CCOCC(=O)N1[C@@H]2CCCC[C@H]2NC2=C(C(=O)NC2)[C@H]1c1ccc(Cl)cc1 [Compound 141] | 6
6 | COc1ccccc1[C@@H]1C2=C(CNC2=O)N[C@@H]2CCCC[C@H]2N1C(=O)Oc1ccccc1 [Compound 40] | 11
7 | O=C1NCC2=C1[C@@H](c1ccccc1C1CC1)N(C(=O)CO)[C@@H]1CCCC[C@H]1N2 [Compound 104] | 0.8
8 | CC(=O)N1[C@@H]2CCCC[C@H]2NC2=C(C(=O)NC2)[C@H]1c1ccc(Br)cc1 [Compound 139] | 17
9 | COc1ccccc1[C@@H]1C2=C(CNC2=O)N[C@@H]2CCCC[C@H]2N1C(=O)c1cnccn1 [Compound 36] | 8.6
10 | CCOCC(=O)N1[C@@H]2CCCC[C@H]2NC2=C(C(=O)NC2)[C@H]1c1ccccc1Cl [Compound 120] | 10.7
11 | CCOCC(=O)N1[C@@H]2CCCC[C@H]2NC2=C(C(=O)NC2)[C@H]1c1ccc(F)cc1OC [Compound 71] | 7.8
12 | CCOc1ccccc1[C@@H]1C2=C(CNC2=O)N[C@@H]2CCCC[C@H]2N1C(=O)COC(C)=O [Compound 50] | 13
13 | Cc1ccccc1[C@@H]1C2=C(CNC2=O)N[C@@H]2CCCC[C@H]2N1C(=O)C(F)(F)F [Compound 82] | 6
14 | CC(=O)N1[C@@H]2CCCC[C@H]2NC2=C(C(=O)NC2)[C@H]1c1ccccc1Br [Compound 114] | 6
15 | Cc1ccccc1[C@@H]1C2=C(CNC2=O)N[C@@H]2CCCC[C@H]2N1C(=O)CO [Compound 86] | 2.5
16 | COc1ccccc1[C@@H]1C2=C(CNC2=O)N[C@@H]2CCCC[C@H]2N1C(=O)c1ccccn1 [Compound 33] | 10
17 | CCOCC(=O)N1[C@@H]2CCCC[C@H]2NC2=C(C(=O)NC2)[C@H]1c1ccccc1Br [Compound 112] | 8.6
18 | Cc1ccccc1[C@@H]1C2=C(CNC2=O)N(C)[C@@H]2CCCC[C@H]2N1C(=O)CO [Compound 92] | 1.5
19 | COc1ccc(F)cc1[C@@H]1C2=C(CNC2=O)N[C@@H]2CCCC[C@H]2N1C(C)=O [Compound 76] | 10
20 | COC(=O)CC(=O)N1[C@@H]2CCCC[C@H]2NC2=C(C(=O)NC2)[C@H]1c1ccccc1Cl [Compound 121] | 2
21 | CCOCC(=O)N1[C@@H]2CCCC[C@H]2NC2=C(C(=O)NC2)[C@H]1c1ccccc1O [Compound 65] | 1
22 | COCC(=O)N1[C@@H]2CCCC[C@H]2NC2=C(C(=O)NC2)[C@H]1c1ccccc1OC(F)(F)F [Compound 69] | 2
23 | COc1ccc([C@@H]2C3=C(CNC3=O)N[C@@H]3CCCC[C@H]3N2C(C)=O)c(OC)c1 [Compound 78] | 10
24 | COc1ccccc1[C@@H]1C2=C(CNC2=O)N[C@@H]2CCCC[C@H]2N1C(=O)CCNC(=O)OCc1ccccc1 [Compound 22] | 8
25 | CC(=O)N1[C@@H]2CCCC[C@H]2NC2=C(C(=O)NC2)[C@H]1c1cccc(F)c1C [Compound 107] | 6
26 | COc1ccccc1[C@@H]1C2=C(CNC2=O)N[C@@H]2CCCC[C@H]2N1C(=O)c1ccncc1 [Compound 35] | 18
27 | COc1ccccc1[C@@H]1C2=C(CNC2=O)N[C@@H]2CCCC[C@H]2N1C(=O)CCc1ccc(F)c(F)c1 [Compound 27] | 4.2

Further lines, results first:

Row | A: sugar transportation activity (EC50) [µg/mL] | Molecule
28 | 2 | CCC(=O)N1[C@@H]2CCCC[C@H]2NC2=C(C(=O)NC2)[C@H]1c1ccccc1F [Compound 124]
29 | 6 | COCC(=O)N1[C@@H]2CCCC[C@H]2NC2=C(C(=O)NC2)[C@H]1c1ccccc1Br [Compound 113]
30 | 6 | CCc1ccccc1[C@@H]1C2=C(CNC2=O)N[C@@H]2CCCC[C@H]2N1C(=O)COC [Compound 97]
31 | 6 | COC(=O)N1[C@@H]2CCCC[C@H]2NC2=C(C(=O)NC2)[C@H]1c1ccccc1OC [Compound 37]
32 | 0.9 | CC(=O)N1[C@@H]2CCCC[C@H]2NC2=C(C(=O)NC2)[C@H]1c1ccccc1OC1CC1 [Compound 61]
33 | 3.6 | CCNC(=O)N1[C@@H]2CCCC[C@H]2NC2=C(C(=O)NC2)[C@H]1c1ccccc1OC [Compound 41]
34 | 2 | COCC(=O)N1[C@@H]2CCCC[C@H]2NC2=C(C(=O)NC2)[C@H]1c1ccccc1OC [Compound 10]
35 | 0.5 | COc1ccccc1[C@@H]1C2=C(CNC2=O)N[C@@H]2CCCC[C@H]2N1C(=O)C1CC1 [Compound 4]
36 | 1.5 | CCC(=O)N1[C@@H]2CCCC[C@H]2NC2=C(C(=O)NC2)[C@H]1c1ccccc1Br [Compound 110]
37 | 3.8 | CCOc1ccccc1[C@@H]1C2=C(CNC2=O)N[C@@H]2CCCC[C@H]2N1C(=O)CO [Compound 51]
38 | 3.4 | COCCC(=O)N1[C@@H]2CCCC[C@H]2NC2=C(C(=O)NC2)[C@H]1c1ccccc1OC [Compound 24]
39 | 2.2 | CCC(=O)N1[C@@H]2CCCC[C@H]2NC2=C(C(=O)NC2)[C@H]1c1ccccc1CC [Compound 94]
40 | 3.6 | CCOc1ccccc1[C@@H]1C2=C(CNC2=O)N[C@@H]2CCCC[C@H]2N1C(=O)COC [Compound 52]
41 | 2 | CCC(=O)N1[C@@H]2CCCC[C@H]2NC2=C(C(=O)NC2)[C@H]1c1ccccc1OC(C)C [Compound 58]
42 | 4 | CCOCC(=O)N1[C@@H]2CCCC[C@H]2NC2=C(C(=O)NC2)[C@H]1c1ccccc1OCC [Compound 53]
43 | 7 | CCCNC(=O)N1[C@@H]2CCCC[C@H]2NC2=C(C(=O)NC2)[C@H]1c1ccccc1OC [Compound 42]
44 | 1.5 | CCOc1ccccc1[C@@H]1C2=C(CNC2=O)N[C@@H]2CCCC[C@H]2N1C(=O)OC [Compound 54]
45 | 7 | CCOC(=O)N1[C@@H]2CCCC[C@H]2NC2=C(C(=O)NC2)[C@H]1c1ccccc1OCC [Compound 55]
46 | 1.1 | CC=CC(=O)N1[C@@H]2CCCC[C@H]2NC2=C(C(=O)NC2)[C@H]1c1ccccc1OC [Compound 16]
47 | 14 | CC(=O)N1[C@@H]2CCCC[C@H]2NC2=C(C(=O)NC2)[C@H]1c1ccccc1OC(C)C [Compound 57]
48 | 1.9 | CCOc1ccccc1[C@@H]1C2=C(CNC2=O)N[C@@H]2CCCC[C@H]2N1C(=O)CC [Compound 47]
49 | 2 | COC(=O)N1[C@@H]2CCCC[C@H]2NC2=C(C(=O)NC2)[C@H]1c1ccccc1C [Compound 90]

Same assay, conditions: insulin 100 nM; rat adipose cells

Row | Molecule | effect of reinforcing the sugar transportation relative to insulin-free control group
50 | insulin [reference compound] | about 7 times
